PubChem BioAssay (NCI)
“And” between values parts separate entries of the source, which are not always exact repeats. Equal entries are not always repeated.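 Assay format: 96-well plates, 48-hour exposure. Here, GI50 denotes the concentration required for 50% inhibition of growth. TGI: concentration producing complete growth inhibition.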

Assays:
Assay in all cases: inhibition of tumour cell growth, NCI panel, 48 h
[1] = tested on: HOP-18 NSCLC
[2] = tested on: XF 498 CNS
[3] = tested on: SNB-78 CNS
[4] = tested on: DMS 114 small cell lung
[5] = tested on: LXFL 529 NSCLC
[6] = tested on: DMS 273 small cell lung
[7] = tested on: M19-MEL melanoma
[8] = tested on: MDA-N
[9] = tested on: RXF-631 renal

CC(=O)O[C@H]1CC2C=CC3C(CCC31)O2 (stereo partly drawn)
TGI [1]: > 100 µM | TGI [2]: > 100 µM | TGI [3]: > 100 µM | TGI [4]: > 100 µM | TGI [5]: > 100 µM | TGI [6]: > 100 µM | TGI [7]: > 100 µM

CCCCCCCC(=O)[O][Hg][CH2]C1COC([CH2][Hg][O]C(=O)CCCCCCC)CO1 (stereo not drawn)
GI50 [8]: 15.6 µM | TGI [8]: 30 µM

Cc1ccc(OCC2OC(n3cnc4c(Br)nc(Br)nc43)CC2Oc2ccc(C)cc2)cc1 (stereo not drawn)
GI50 [8]: 6.2 µM | TGI [8]: 17.4 µM and 9.89 µM

O=[N+]([O-])c1cc2c([N+](=O)[O-])cccc2o1
TGI [8]: 23.6 µM

CN(C)c1ccc2nc(CC(O)(C(F)(F)F)C(F)(F)F)ccc2c1
TGI [8]: > 10 µM

COc1ccc(CCc2cc(OC)c(O)c(OC)c2)cc1
TGI [9]: > 100 µM | TGI [2]: > 100 µM | TGI [3]: > 100 µM | TGI [4]: > 100 µM | TGI [5]: > 100 µM | TGI [6]: > 100 µM | TGI [7]: > 100 µM

c1ccc2c(NCCCCCCNc3cccc4ccccc34)cccc2c1
TGI [1]: > 100 µM | TGI [9]: > 100 µM | TGI [2]: > 100 µM | TGI [3]: > 100 µM | TGI [4]: > 100 µM | TGI [5]: > 100 µM | TGI [6]: > 100 µM | TGI [7]: > 100 µM

COC(=O)C(=O)C(C(=O)C(=O)Nc1cc(C)ccc1C)c1nc2ccc(C(=O)c3ccccc3)cc2[nH]c1=O (stereo not drawn)
TGI [1]: > 100 µM | TGI [9]: > 100 µM | TGI [3]: > 100 µM | TGI [4]: > 100 µM | TGI [5]: > 100 µM | TGI [6]: > 100 µM | TGI [7]: > 100 µM

c1ccc(N/N=C2\NN=C(c3ccccc3)CS2)cc1
TGI [9]: 35.8 µM | TGI [3]: 34.2 µM

CCCCCCCCCCCCCB(O)O
GI50 [1]: > 100 µM and 25.9 µM | TGI [1]: > 100 µM | TGI [2]: > 100 µM | TGI [3]: > 100 µM | TGI [4]: > 100 µM | TGI [5]: > 100 µM | TGI [6]: > 100 µM | TGI [7]: > 100 µM

COc1cc(/C=C2/C(=O)N(C(=O)OCc3ccccc3)C(Cc3cc(OC)c(OC)c(C)c3OC)C(=O)N2Cc2ccccc2)c(OC)c(C)c1OC (stereo not drawn)
TGI [1]: > 100 µM | TGI [9]: > 100 µM | TGI [4]: > 100 µM | TGI [5]: > 100 µM | TGI [6]: > 100 µM | TGI [7]: > 100 µM

Cc1ccc2nc(NC(=O)/C(=N\NC(=S)NN)C3C(=O)NC(=S)NC3=O)sc2c1
TGI [1]: > 100 µM | TGI [9]: > 100 µM | TGI [2]: > 100 µM | TGI [3]: > 100 µM | TGI [5]: > 100 µM | TGI [6]: > 100 µM

C=CCN(N=O)C(=O)NCCCCC(NC(C)=O)C(=O)NCc1ccccc1 (stereo not drawn)
TGI [1]: > 100 µM | TGI [9]: > 100 µM | TGI [2]: > 100 µM | TGI [4]: > 100 µM | TGI [5]: > 100 µM | TGI [6]: > 100 µM | TGI [7]: > 100 µM

CC1C2CC=CC(=O)[C@@]2(C)CCC12OCCO2 (stereo partly drawn)
TGI [3]: > 100 µM | TGI [4]: > 100 µM | TGI [5]: > 100 µM | TGI [6]: > 100 µM | TGI [7]: > 100 µM

C/C(=N/Nc1nc(C)cc(=O)[nH]1)C(=O)O
TGI [8]: > 100 µM

[O-]c1c2c(nn1-c1ccc(Cl)cc1)c1ccccc1c[n+]2Cc1ccccc1
TGI [1]: > 100 µM | TGI [2]: > 100 µM | TGI [3]: > 100 µM | TGI [4]: > 100 µM | TGI [5]: > 100 µM | TGI [6]: > 100 µM

CCN(CC)CCNc1ccc2nc(C)n3c4ccc(O)cc4c(=O)c1c23
TGI [9]: 7.51 µM | TGI [4]: 10.4 µM | TGI [5]: 16.5 µM | TGI [6]: 3.15 µM | TGI [7]: 16.8 µM

CCOC(=O)C(C(O)c1ccc([N+](=O)[O-])cc1)P(=O)(OCC)OCC (stereo not drawn)
TGI [1]: > 100 µM | TGI [9]: > 100 µM | TGI [2]: > 100 µM | TGI [5]: > 100 µM | TGI [6]: > 100 µM | TGI [7]: > 100 µM

C[CH2][Sn]([CH2]C)([O]C(=O)c1ccc(OC)c(OC)c1OC)[O]C(=O)c1ccc(OC)c(OC)c1OC
GI50 [8]: > 100 µM | TGI [8]: > 100 µM | GI50 [1]: 18.7 µM | TGI [1]: 32.7 µM | GI50 [2]: 34.6 µM | TGI [2]: > 71.5 µM | GI50 [4]: 25.7 µM | TGI [4]: > 72.8 µM | GI50 [5]: 12.6 µM | TGI [5]: 25.3 µM | GI50 [6]: > 100 µM | TGI [6]: > 100 µM | GI50 [7]: 53.2 µM | TGI [7]: > 100 µM

COC[C@H](C)N=CN1CCc2ccccc2C1(Cc1ccccc1)Cc1ccccc1
TGI [1]: 24 µM | TGI [9]: 34.9 µM | TGI [2]: 24.8 µM | TGI [5]: 25.3 µM

[CH3][Sn]([CH3])([CH3])[O][N+](=O)[O-]
GI50 [8]: 5.14 µM | TGI [8]: > 10 µM

CCN=C(C#N)NCC
TGI [1]: > 100 µM | TGI [2]: > 100 µM | TGI [3]: > 100 µM | TGI [4]: 92 µM | TGI [5]: > 100 µM | TGI [6]: > 100 µM | TGI [7]: > 100 µM

Cc1ccc(NC(=O)OCC(COc2ccc(Cl)cc2Cl)OC(=O)Nc2ccc(C)cc2)cc1 (stereo not drawn)
TGI [1]: > 100 µM | TGI [3]: > 100 µM | TGI [4]: > 100 µM | TGI [5]: > 100 µM | TGI [6]: > 100 µM | TGI [7]: > 100 µM

CCOC(=O)C(=O)Nc1ccccc1C(C)C
TGI [1]: > 100 µM | TGI [9]: > 100 µM | TGI [2]: > 100 µM | TGI [4]: > 100 µM | TGI [5]: > 100 µM | TGI [6]: > 100 µM | TGI [7]: > 100 µM

CCOC1CC2OC(=O)C1C=C2C(=O)OC (stereo not drawn)
TGI [1]: > 100 µM | TGI [2]: 53.9 µM | TGI [3]: > 100 µM | TGI [4]: 54.9 µM | TGI [5]: 36.1 µM | TGI [7]: > 100 µM

O=C(O)Cc1cccc2c(=O)c3cccc([N+](=O)[O-])c3oc12
TGI [8]: > 100 µM

CCOCc1cc(=O)c2c(OC)cc3c(c2o1)CCC(C)(C)O3
TGI [1]: > 100 µM | TGI [2]: > 100 µM | TGI [3]: > 100 µM | TGI [5]: > 100 µM | TGI [7]: > 100 µM

Cn1cnc([N+](=O)[O-])c1Sc1nccc(=O)[nH]1
TGI [1]: > 100 µM | TGI [9]: > 100 µM | TGI [2]: > 100 µM | TGI [3]: > 100 µM | TGI [4]: > 100 µM | TGI [5]: > 100 µM | TGI [6]: > 100 µM | TGI [7]: > 100 µM

COc1ccc2c(c1OC(C)=O)C1=CC(=O)CCC13CCNC3C2 (stereo not drawn)
TGI [8]: > 100 µM

Cc1ccccc1C1CC(c2ccccc2)=NO1 (stereo not drawn)
TGI [1]: > 100 µM | TGI [9]: > 100 µM | TGI [3]: > 100 µM | TGI [4]: > 100 µM | TGI [5]: > 100 µM | TGI [6]: > 100 µM

CCOP1(=O)C=C(C)C(=C(Cl)Cl)C(C)=C1 (stereo not drawn)
TGI [1]: 46.9 µM | GI50 [9]: 20.4 µM | TGI [9]: 64.5 µM | TGI [2]: 35.7 µM | GI50 [5]: 5.53 µM | TGI [5]: 24.1 µM | GI50 [7]: 12.9 µM | TGI [7]: 36.3 µM

CC(C)C1N2CCCCC2[C@@H]2c3[nH]c4ccccc4c3CCN12 (stereo partly drawn)
TGI [1]: > 100 µM | TGI [2]: > 100 µM | TGI [3]: > 100 µM | TGI [4]: > 100 µM | TGI [5]: > 100 µM | TGI [6]: > 100 µM | TGI [7]: > 100 µM

CCC[CH2][Pb]([Cl])([CH2]CCC)[CH2]CCC
GI50 [8]: 0.0196 µM | TGI [8]: 0.0461 µM

COC(=O)/C(=N\NC(N)=O)C(C(=O)C=C(C)C)C(=O)C(=O)Nc1ccc(Cl)c(Cl)c1 (stereo not drawn)
TGI [1]: > 100 µM | TGI [9]: > 100 µM | TGI [2]: > 100 µM | TGI [3]: > 100 µM | TGI [4]: > 100 µM | TGI [5]: > 100 µM | TGI [6]: > 100 µM | TGI [7]: > 100 µM

O=C(O)CCC(C(=O)O)N1C(=O)C2C3CCC(C3)C2C1=O (stereo not drawn)
TGI [8]: > 100 µM

CC1CC[P+](c2ccccc2)(c2ccccc2)CC1
TGI [1]: > 100 µM | TGI [2]: 77.4 µM | TGI [3]: > 100 µM | TGI [4]: > 100 µM | TGI [5]: > 100 µM | TGI [6]: > 100 µM | TGI [7]: > 100 µM

CCCCN(CCCC)CCCn1cnc2ncccc2c1=O
TGI [2]: > 100 µM | TGI [3]: > 100 µM | TGI [4]: > 100 µM | TGI [5]: > 100 µM | TGI [6]: > 100 µM | TGI [7]: > 100 µM

COc1cccc2c1C(=O)c1c(O)c3c(c(O)c1C2=O)CC(O)(C(=O)CO)CC3OC1CC(N)C(O)C(C)O1 (stereo not drawn)
GI50 [8]: 37.5 µg/mL and 69.1 µg/mL | TGI [8]: 75 µg/mL and > 150 µg/mL

C/C(=N\NC(=O)CC(=O)N(C(=O)c1ccc(Cl)cc1)c1ccc(C)cc1)c1ccccc1O
TGI [9]: > 100 µM | TGI [2]: > 100 µM | TGI [3]: > 100 µM | TGI [4]: > 100 µM | TGI [5]: > 100 µM | TGI [6]: > 100 µM | TGI [7]: > 100 µM

C1C[OH+]CC[OH+]CCNCC[OH+]CC[OH+]CCN1.Cl.[Cl-].[Pt+4]
GI50 [1]: > 100 µM | TGI [1]: > 100 µM | GI50 [5]: > 100 µM | TGI [5]: > 100 µM | GI50 [6]: > 100 µM | TGI [6]: > 100 µM
